The values below come from patent publication US20240043531A1, “ANTI-CD47 MONOCLONAL ANTIBODY AND USE THEREOF” (Akeso Biopharma, Inc., priority 2021, published 2024).

The test system of series [1] is hematological malignancies and solid tumors. The note with it: Chao M P et al., 2016; cited from earlier work.
The subject of series [2] is acute myelocytic leukemia (AML) HL-60 cells. The series can be described thus: ADCP: phagocytosis of HL-60 cells by HPMMs, combination with azacitidine. The series is classed as cell-based, human. The note with it: HPMMs effector, HL-60 target cells treated with azacitidine 3 μM or 1 μM for 24 h; antibodies 10 μg/mL and 1 μg/mL; FIG. 2. From the text:
Materials: Azacitidine (purchased from Baxter Oncology GmbH); Hu5F9-G4 (supplied by Akeso Biopharma, Inc.); Raji cells (Chinese Academy of Sciences Shanghai Branch); HL-60 cells (ATCC); RPMI 1640 (Gibco, Cat. No: 22400-105); pancreatin (0.25% Typsin-EDTA (1×)) (Gibco, Cat. No: 25200072); fetal bovine serum (FBS; Excell bio, Cat. No: FSP500); fluorescent dye […] diacetatesuccinimidyl ester (CFSE; Biolegend, Cat. No: 423801); recombinant human macrophage colony-stimulating factor (human M-CSF; PeproTech, Cat. No: 300-25); APC anti-human CD11c antibody (Biolegend, Cat. No: 301614); isotype control (human IgG4; supplied by Akeso Biopharma, Inc.); rituximab (Roche); BSA (Sigma, Cat. No: V900933-1KG); Ficoll paque plus (GE, Cat. No: 17-1440-02). Human peripheral monocyte-derived macrophages (HPMMs) were prepared by inducing PBMCs. Frozen PBMCs were conventionally thawed and incubated in an incubator overnight. […]
Procedures: HL-60 cells were conventionally collected and plated in a 6-well plate at 4×10^5 cells/2 mL of 1640 complete medium per well. […] The next day, the treated and blank HL-60 cells were collected, centrifuged at 170×g for 5 min, resuspended and counted. Then the cells were analyzed for viability and washed once with PBS. […]

Series [3] can be described thus: CT26-hCD47 tumor model, tolerability and body weight. Format: in vivo. The following applies: 6F7H1L1(hG4) 5 mg/kg, cadonilimab 0.5 mg/kg, i.p.; FIG. 10. From the text: (§1) In order to determine the tumor inhibitory activity in vivo of 6F7H1L1(hG4) antibody in combination with anti-PD-1/anti-CTLA-4 bispecific antibody cadonilimab, female BALB/c-hPD1I/hSIRPα mice aged 6.43-8.43 weeks (purchased from GemPharmatech Co., Ltd.) were grafted subcutaneously with CT26-hCD47 cells (mouse colon cancer cells, purchased from GemPharmatech Co., Ltd.). When the mean tumor volume reached 80-120 mm^3, the mice were randomized into 4 groups of 6 by tumor volume. The day of grouping was defined as D0, and dosing was started on the day of grouping D0. The regimen of the combination therapy group is as follows: the drugs were formulated separately and administered sequentially (no certain order or time interval was required, and one treatment should be given after the completed administration of the other). After the administration, the length and width of tumors in each group were measured, and the tumor volume was calculated. The data were subjected to an independent sample T-test, SPSS 17.0 *P<0.05, **P<0.01.

The subject of series [4] is human Burkitt's lymphoma Raji-PDL1 cells. The series can be described thus: Immune cell activation: PBMCs co-cultured with Raji-PDL1 cells, cytokine ELISA. The series is classed as cell-based. The following applies: SEB-activated PBMCs + MMC-treated Raji-PDL1 cells, 3 days; FIG. 3. For orientation: ELISA stands for enzyme-linked immunosorbent assay.
In series [5] the test system is CT26-hCD47 cells (mouse colon cancer cells). The series can be described thus: CT26-hCD47 tumor model in BALB/c-hPD1/hSIRPα mice, tumor volume. Format: in vivo. The note with it: 6F7H1L1(hG4) 5 mg/kg, cadonilimab 0.5 mg/kg, intraperitoneally twice per week for 4 weeks, 7 doses; vs isotype control hIgG4; FIG. 9.
From the text: as §1

A further series deals with Raji cells. The series can be described thus: ADCP: phagocytosis of Raji cells by HPMMs, combination with obinutuzumab. Format: cell-based, human. The note with it: HPMMs effector, Raji target cells, 37° C. 2 h; FIG. 8. How it is done: PBMCs (prepared by Akeso Biopharma, Inc., Lot No: 20201126-G) were thawed and incubated with 1640 complete medium+10% FBS (Excell bio, Cat. No: FSP500, Lot No: 11I025) overnight. The next day, the medium was changed to 1640 complete medium+2% FBS, and the cells were incubated with the medium for 2 h. The supernatant was removed, and the cells were washed twice with PBS and incubated in an incubator (90% 1640+10% FBS+M-CSF-100 ng/mL) to induce […] (HPMMs). The medium was exchanged and the treatment was given on days 3 and 5. The experiment was performed on day 7 of induction.
Raji cells (purchased from ATCC) were conventionally collected and washed once with PBS. CFSE was diluted to 2.5 μM with PBS. The cells were resuspended in a proper amount of the diluted CFSE to a staining density of 1×10^7 cells/mL and incubated in an incubator for 20 min. 6 mL of 1640 complete medium (containing 10% FBS) was added to stop staining. The cells were centrifuged at 170×g for 5 min, and the supernatant was discarded. 1 mL of 1640 complete medium was added, and the cells were incubated in an incubator for 10 min with the cell density adjusted to 3×10^6 cells/mL. […] 200 μL of 1% PBSA was added to each tube for resuspension, and the cells were transferred to a flow cytometry tube and detected.

Take “Hu5F9-G4: anti-CD47 monoclonal antibody drug, positive control; heavy chain SEQ ID NO: 85, light chain SEQ ID NO: 86”: in series [1], the “inhibition of growth and metastasis of tumors in preclinical studies” value is “effectively inhibits the growth and metastasis of hematological malignancies and solid tumors”. Further, in series [2], the “phagocytic index (ADCP)” value was “significantly higher than those of the blank control and the isotype control (human IgG4)”.
“cadonilimab: anti-PD-1/CTLA-4 bispecific antibody; heavy chain SEQ ID NO: 78, light chain SEQ ID NO: 80 [reference compound]”: the “tolerability in tumor-bearing mice” value in series [3] is “well tolerated”. Moreover, in series [4], the “secretion of IFN-γ in PBMCs” value was “can significantly stimulate the secretion of IFN-γ”. The “inhibition of tumor growth (tumor volume)” value in series [5] is reported as “can effectively inhibit the growth of tumors in mice”.
Consider “obinutuzumab: anti-human CD20 antibody [reference compound]”, for which the “phagocytic index (ADCP)” value in the series on Raji cells was “significantly higher than those of the blank control and the isotype controls (human IgG4 and human IgG1)”.
